In patent US20100010046A1, “PHARMACEUTICAL FORMULATION FOR PARENTERAL ADMINISTRATION” (IRONWOOD PHARMACEUTICALS, INC., priority 2006, published 2010):

Key:
[1] = system: isolated canine parietal cell preparation; experiment: Inhibition of histamine-stimulated acid secretion in an isolated canine parietal cell preparation; format: cell-based; conditions: Canis lupus familiaris, read-out: IC50 (nM), concentration required to inhibit 50% of maximal histamine-stimulated acid secretion
Source text: Concentrations required to inhibit 50% of maximal histamine-stimulated acid secretion in an isolated canine parietal cell preparation is shown in Table 1 below.

[2] = system: indomethacin-induced rat gastric ulcers; conditions: subcutaneous, 50 μg/kg; cited from earlier work
[3] = room temperature; presence of water (U.S. Pat. No. 5,324,746); cited from earlier work

IC50 [1]: 3.8 nM
Compound: CCCCC(C)(O)C/C=C/[C@H]1C(O)CC(=O)[C@@H]1CCCCCCC(=O)OC (stereo partly drawn) [Misoprostol]
reduced lesion formulation [2]: up to 60%
chemical stability [3]: chemically unstable at room temperature and breaks down in the presence of water
